Laboratory results from patent US8759522B2, “Inhibitors of protein tyrosine kinase activity” (Methylgene Inc., priority 2008, dated 2014).

Legend:
VEGFR2 (KDR) = target: T1, VEGFR2 (KDR) (Homo sapiens, UniProt P35968); test: In vitro receptor tyrosine kinase assay (VEGF receptor KDR), DELFIA; type: biochemical; settings: recombinant GST-VEGFR2 catalytic domain, ATP 0.6 uM, enzyme 5 nM
T1 construct: made in house; host or cells: Sf9 cells (Spodoptera frugiperda), baculovirus (Bac-to-Bac)
Source text: In Vitro Receptor Tyrosine Kinase Assay (VEGF Receptor KDR)
This test measures the ability of compounds to inhibit the enzymatic activity of recombinant human VEGF receptor enzymatic activity.
A 1.6-kb cDNA corresponding to the catalytic domain of VEGFR2 (KDR) (Genbank accession number AF035121 amino acid 806 to 1356) is cloned into the Pst I site of the pDEST20 Gateway vector (Invitrogen) for the production of a GST-tagged version of that enzyme. This constuct is used to generate recombinant baculovirus using the Bac-to-Bac™ system according to the manucfacturer's instructions (Invitrogen).
The GST-VEGFR2806-1356 protein is expressed in Sf9 cells (Spodoptera frugiperda) upon infection with recombinant baculovirus construct. Briefly, Sf9 cells grown in suspension and maintained in serum-free medium (Sf900 II supplemented with gentamycin) at a cell density of about 2×10^6 cells/ml are infected with the above-mentioned viruses at a multiplicity of infection (MOI) of 0.1 during 72 hours at 27° C. with agitation at 120 rpm on a rotary shaker. Infected cells are harvested by centrifugation at 398 g for 15 min. Cell pellets are frozen at −80° C. until purification is performed.
All steps described in cell extraction and purification are performed at 4° C. Frozen Sf9 cell pellets infected with the GST-VEGFR2806-1356 recombinant baculovirus are thawed and gently resuspended in Buffer A (PBS pH 7.3 supplemented with 1 μg/ml pepstatin, 2 μg/ml Aprotinin and leupeptin, 50 μg/ml PMSF, 50 μg/ml TLCK and 10 μM E64 and 0.5 mM DTT) using 3 ml of buffer per gram of cells. Suspension is Dounce homogenized and 1% Triton X-100 is added to the homogenate after which it is centrifuged at 22500 g, 30 min., 4° C. The supernatant (cell extract) is used as starting material for purification of GST-VEGFR2806-1356.
The supernatant is loaded onto a GST-agarose column (Sigma) equilibrated with PBS pH 7.3. Following a four column volume (CV) wash with PBS pH 7.3+1% Triton X-100 and 4 CV wash with buffer B (50 mM Tris pH 8.0, 20% glycerol and 100mM NaCl), bound proteins are step eluted with 5 CV of buffer B supplemented with 5 mM DTT and 15 mM glutathion. GST-VEGFR2806-1356 enriched fractions from this chromatography step are pooled based on U.V. trace i.e. fractions with high O.D.280. Final GST-VEGFR2806-1356 protein preparations concentrations are about 0.7 mg/ml with purity approximating 70%. Purified GST-VEGFR2806-1356 protein stocks are aliquoted and frozen at −80° C. prior to use in enzymatic assay.
Inhibition of VEGFR/KDR is measured in a DELFIA™ assay (Perkin Elmer). The substrate poly(Glu4, Tyr) is immobilized onto black high-binding polystyrene 96-well plates. The coated plates are washed and stored at 4° C. During the assay, the enzyme is pre-incubated with inhibitor and Mg-ATP on ice in polypropylene 96-well plates for 4 minutes, and then transferred to the coated plates. The subsequent kinase reaction takes place at 30° C. for 10-30 minutes. ATP concentrations in the assay are 0.6 uM for VEGFR/KDR (2× the Km). Enzyme concentration is 5 nM. After incubation, the kinase reactions are quenched with EDTA and the plates are washed. Phosphorylated product is detected by incubation with Europium-labeled anti-phosphotyrosine MoAb. After washing the plates, bound MoAb is detected by time-resolved fluorescence in a Gemini SpectraMax reader (Molecular Devices). Compounds are evaluated over a range of concentrations and IC50's (concentration of compounds giving 50% inhibition of enzymatic activity) are determined. In the table, “a” indicates inhibitory activity at a concentration of less than 250 nanomolar; “b” indicates inhibitory activity at a concentration ≧250 but <500 nanomolar, “c” indicates inhibitory activity at ≧500 but <1000 nanomolar; and “d” indicates inhibitory activity ≧1000 nanomolar.

[1] = tested on: VEGF-dependent Erk phosphorylation in HUVEC cells; test: VEGF-dependent Erk phosphorylation; type: cell-based; settings: Homo sapiens, 1.5 h compound, VEGF165 150 ng/ml, phospho ERK1/2 Western blot
Source text: VEGF-Dependent Erk Phosphorylation
HUVEC cells were purchased from Cambrex Bio Science Walkersville, Inc and cultured according to the vendor's instructions. The full-length coding sequence of VEGF165 was cloned using the Gateway Cloning Technology (Invitrogen) for baculovirus expression Sf9 cells. VEGF165 was purified from conditioned media using a NaCl gradient elution from a HiTrap heparin column (GE Healthcare Life Sciences) followed by an imidazole gradient elution from a HiTrap chelating column (GE Healthcare Life Sciences), then buffer stored in PBS supplemented with 0.1% BSA and filter sterilized
Cells were seeded at 8000 cells/well of a 96 wells plate and grown for 48 hours. Cells were then grown overnight in serum and growth factor-free medium and exposed for 1.5 h to compounds dilutions. Following a 15 min incubation in medium, VEGF165 (150 ng/ml) cells were lysed in ice-cold lysis buffer (50 mM HEPES, pH 7.4, 150 mM NaCl, 1.5 mM MgCl2, 1% Triton X-100, 10% glycerol) containing 1 mM 4-(2 aminoethyl)benzenesulfonyl fluoride hydrochloride, 200 μM sodium orthovanadate, 1 mM sodium fluoride, 10 μg/mL leupeptin, 10 μg/mL aprotinin, 1 μg/mL pepstatin and 50 μg/mL Na-p-tosyl-L-lysine chloromethyl ketone hydrochloride and processed as Western blots to detect anti-phospho ERK1/2 (T202/Y204) (Cell Signaling Technologies).
lysates samples from single treatment wells were separated on 5-20% SDS-PAGE gels and immunobloting was performed using Immobilon polyvinylidene difluoride membranes (Amersham) according to the manufacturer's instructions.

T1 sequence (P35968 806-1356): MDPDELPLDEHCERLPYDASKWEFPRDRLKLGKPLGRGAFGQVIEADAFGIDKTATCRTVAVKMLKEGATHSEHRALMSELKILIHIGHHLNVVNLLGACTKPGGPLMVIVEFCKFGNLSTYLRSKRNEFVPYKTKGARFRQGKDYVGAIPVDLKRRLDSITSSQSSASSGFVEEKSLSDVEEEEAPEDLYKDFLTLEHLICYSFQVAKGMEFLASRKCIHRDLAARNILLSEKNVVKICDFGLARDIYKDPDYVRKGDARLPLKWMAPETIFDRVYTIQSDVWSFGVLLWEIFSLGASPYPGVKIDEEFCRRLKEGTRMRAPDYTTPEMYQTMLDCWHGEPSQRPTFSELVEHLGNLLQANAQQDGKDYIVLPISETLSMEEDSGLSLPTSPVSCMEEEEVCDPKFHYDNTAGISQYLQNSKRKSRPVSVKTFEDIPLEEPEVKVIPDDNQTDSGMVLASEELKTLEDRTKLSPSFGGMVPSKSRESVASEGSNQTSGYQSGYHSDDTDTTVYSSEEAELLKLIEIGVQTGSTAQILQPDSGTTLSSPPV

SMILES | IC50 (VEGFR2 (KDR)) [nM] | IC50 [1] [nM]
COCCNCc1cccc(-c2cc3nccc(Oc4ccc(NC(=O)NC5CC5)cc4F)c3s2)n1 | < 250 | < 250
COCCNCc1ccc(-c2cc3nccc(Oc4ccc(NC(=O)Nc5cccc(C(N)=O)c5)cc4F)c3s2)nc1 | < 250 | < 250
COCCNCc1ccc(-c2cc3nccc(Oc4ccc(NC(=O)Nc5cccc(S(C)(=O)=O)c5)cc4F)c3s2)nc1 | < 250 | < 250
COCCNCc1cnc(-c2cc3nccc(Oc4ccc(NC(=O)Nc5cc(C(F)(F)F)ccc5F)cc4F)c3s2)n1C | < 250 | < 250
COCCNCc1cnc(-c2cc3nccc(Oc4ccc(NC(=O)Nc5ccc(OC)cc5)cc4F)c3s2)n1C | < 250 | < 250
COCCNCc1cnc(-c2cc3nccc(Oc4ccc(NC(=O)Nc5cccc(C(N)=O)c5)cc4F)c3s2)n1C | < 250 | < 250
COCCNCc1ccc(-c2cc3nccc(Oc4ccc(NC(=O)Nc5cccc(C(=O)OC)c5)cc4F)c3s2)nc1 | < 250 | –
CNC(=O)c1cccc(NC(=O)Nc2ccc(Oc3ccnc4cc(-c5ccc(CNCCOC)cn5)sc34)c(F)c2)c1 | < 250 | –
COCCN(Cc1ccc(-c2cc3nccc(Oc4ccc(NC(=O)Nc5cccc(C(N)=O)c5)cc4F)c3s2)nc1)C(C)=O | < 250 | < 250
COCCOCCOCCOCCN(Cc1ccc(-c2cc3nccc(Oc4ccc(NC(=O)NC5CC5)cc4F)c3s2)nc1)C(C)=O | < 250 | < 250
COCCNCc1ccc(-c2cc3nccc(Oc4ccc(NC(=O)Nc5ccn(C)n5)cc4F)c3s2)nc1 | < 250 | < 250
COCCNCc1ccc(-c2cc3nccc(Oc4ccc(NC(=O)Nc5cccc(C(=O)N(C)C)c5)cc4F)c3s2)nc1 | < 250 | < 250
COCCN(Cc1ccc(-c2cc3nccc(Oc4ccc(NC(=O)Nc5cccc(C(=O)N(C)C)c5)cc4F)c3s2)nc1)C(C)=O | < 250 | < 250
COCCNCc1ccc(-c2cc3nccc(Oc4ccc(NC(=O)Nc5ccc(F)cc5F)cc4F)c3s2)nc1 | < 250 | < 250
O=C(Nc1ccc(Oc2ccnc3cc(-c4ccc(C5OCCCO5)cn4)sc23)c(F)c1)NC1CC1 | < 250 | < 250
COCCN(Cc1ccc(-c2cc3nccc(Oc4ccc(NC(=O)Nc5cccc(S(C)(=O)=O)c5)cc4F)c3s2)nc1)C(=O)OC | < 250 | < 250
CCOC(=O)N(CCOC)Cc1ccc(-c2cc3nccc(Oc4ccc(NC(=O)NC5CC5)cc4F)c3s2)nc1 | < 250 | < 250
COCCOCCOCCOCCNCc1ccc(-c2cc3nccc(Oc4ccc(NC(=O)NC5CC5)cc4F)c3s2)nc1 [drawing 129] | < 250 | < 250
COCCNCc1cnc(-c2cc3nccc(Oc4ccc(NC(=O)NC5CC5)cc4F)c3s2)n1C [drawing 131] | < 250 | < 250
COCCNCc1cnc(-c2cc3nccc(Oc4ccc(NC(=O)Nc5ccc(F)cc5F)cc4F)c3s2)n1C [drawing 134] | < 250 | < 250
COCCN(Cc1cnc(-c2cc3nccc(Oc4ccc(NC(=O)NC5CC5)cc4F)c3s2)n1C)S(C)(=O)=O [drawing 137] | < 250 | < 250
COCCN(Cc1ccc(-c2cc3nccc(Oc4ccc(NC(=O)NC5CC5)cc4F)c3s2)nc1)C(=O)[C@H](N)C(C)C [drawing 143] | < 250 | < 250
COCCN(Cc1ccc(-c2cc3nccc(Oc4ccc(NC(=O)Nc5cccc(S(C)(=O)=O)c5)cc4F)c3s2)nc1)C(C)=O [drawing 152] | < 250 | < 250
COCCN(Cc1ccc(-c2cc3nccc(Oc4ccc(NC(=O)Nc5cccc(C(N)=O)c5)cc4F)c3s2)nc1)C(=O)OC [drawing 160] | < 250 | < 250

Further lines, with some results ahead:

IC50 (VEGFR2 (KDR)) [nM] | SMILES | IC50 [1] [nM]
250 to 500 | COCCNCc1ccc(-c2cc3nccc(Oc4ccc(NC(=O)C5CC5)cc4F)c3s2)nc1 | –
≥ 1000 | COCCNCc1ccc(-c2cc3nccc(Oc4ccc(NC(=O)N[C@@H]5CCOC5)cc4F)c3s2)nc1 | < 250
250 to 500 | COCCNCc1ccc(-c2cc3nccc(Oc4ccc(NC(=O)CC(=O)NC5CCC5)cc4F)c3s2)nc1 | < 250
≥ 1000 | COCCNCc1ccc(-c2cc3nccc(Oc4ccc(NC(=O)OC5CCCCC5)cc4F)c3s2)nc1 | < 250
< 250 | COCCNCc1ccc(-c2cc3nccc(Oc4ccc(NC(=O)OC5CCC5)cc4F)c3s2)nc1 | < 250
500 to 1000 | COCCNCc1ccc(-c2cc3nccc(Oc4ccc(NC(=O)N[C@H]5CCOC5)cc4F)c3s2)nc1 | < 250
250 to 500 | COCCNCc1ccc(-c2cc3nccc(Oc4ccc(NC(=O)CC(=O)Nc5cccc(C(N)=O)c5)cc4F)c3s2)nc1 | < 250
< 250 | COCCNCc1ccc(-c2cc3nccc(Oc4ccc(NC(=O)CC(=O)Nc5cccc(S(C)(=O)=O)c5)cc4F)c3s2)nc1 | < 250
500 to 1000 | COCCNCc1ccc(-c2cc3nccc(Oc4ccc(NC(=O)NC(C)C)cc4F)c3s2)nc1 | < 250
< 250 | COC[C@H](C)NCc1ccc(-c2cc3nccc(Oc4ccc(NC(=O)NC5CC5)cc4F)c3s2)nc1 | < 250
< 250 | COCCN(Cc1ccc(-c2cc3nccc(Oc4ccc(NC(=O)NC5CC5)cc4F)c3s2)nc1)C(=O)OC | –
< 250 | COCCNCc1ccc(-c2cc3nccc(Oc4ccc(NC(=O)NC5CCC5)cc4F)c3s2)nc1 [drawing 153] | < 250
